Experimental data: patent US20230116703A1, “NOVEL ERGOLINES AND METHODS OF TREATING MOOD DISORDERS” (priority 2021, published 2023)

How the values were obtained:
5-HT2A receptor [1] = target: T1, 5-HT2A receptor (Homo sapiens, UniProt P28223); assay: biochemical; format: binding; details: 1 nM [^3H]ketanserin, HEK293 stable cell line; read-out: 5-HT2A Receptor Ki (nM) ([^3H]ketanserin)
T1 construct: host or cells: HEK293
Method: Affinity of the test compounds for the 5-HT2A receptor was determined in radioligand binding experiments with [^3H]ketanserin by WuXi AppTec (Hong Kong) Limited, using methods adapted from the literature and under conditions described in Table 1.

5-HT2A receptor [2] = target: T1, 5-HT2A receptor; assay: cell-based; format: cell-based; details: for EC50 / 5-HT2A % Act @ Max Dose: Ca^2+ flux, agonist; for EC50: read-out: 5-HT2A EC50
Method: (§1) Functional Assays at 5-HT2A, 5-HT2B, and 5-HT1A. Agonist activity at 5-HT2A, 5-HT2B, and 5-HT1A receptors was determined using a FLIPR Ca^2+ flux assay at WuXi AppTec (Hong Kong) Limited according to their standard protocols. Briefly, stably transfected cells expressing the receptor of interest (HEK293 for 5-HT2A and 5-HT2B; CHO cells for 5-HT1A) were grown and plated in a 384 well plate and incubated at 37° C. and 5% CO2 overnight. A solution of 250 mM probenecid in 1 mL FLIPR assay buffer was prepared fresh. This was combined with a fluorescent dye (Fluo-4 Direct™) to make a final assay concentration of 2.5 mM. […] The fluorescent dye was then added to the assay plate along with assay buffer to a final volume of 40 μL. The cell plate was incubated for 50 min at 37° C. and 5% CO2 and placed into the FLIPR Tetra along with the compound plate. 10 μL of references and compounds were then transferred from the compound plate into the cell plate and the fluorescent signal was read.

5-HT1A receptor = target: T2, 5-HT1A receptor (Homo sapiens, UniProt P08908); assay: cell-based; details: Ca^2+ flux, agonist; for EC50: read-out: 5-HT1A EC50
T2 construct: host or cells: CHO cells
T2 sequence (P08908 1-422): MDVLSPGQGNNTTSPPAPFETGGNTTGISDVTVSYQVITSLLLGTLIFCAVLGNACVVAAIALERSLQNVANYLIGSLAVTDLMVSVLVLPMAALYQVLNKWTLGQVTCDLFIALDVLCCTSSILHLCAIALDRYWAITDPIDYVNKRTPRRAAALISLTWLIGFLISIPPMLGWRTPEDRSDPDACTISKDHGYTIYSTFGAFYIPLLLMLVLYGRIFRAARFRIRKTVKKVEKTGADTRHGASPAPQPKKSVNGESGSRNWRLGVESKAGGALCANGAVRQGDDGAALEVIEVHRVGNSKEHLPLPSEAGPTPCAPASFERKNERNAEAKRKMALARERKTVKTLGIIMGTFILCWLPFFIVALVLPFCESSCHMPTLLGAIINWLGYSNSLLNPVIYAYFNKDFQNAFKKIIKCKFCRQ
Method: as §1

5-HT2B receptor = target: T3, 5-HT2B receptor (Homo sapiens, UniProt P41595); assay: cell-based; details: Ca^2+ flux, agonist; for EC50: read-out: 5-HT2B EC50
T3 construct: host or cells: HEK293
Method: as §1

5-HT1B receptor = 5-HT1B receptor (Homo sapiens, UniProt P28222); assay: cAMP accumulation agonist assay at 5-HT1B; format: cell-based; details: cAMP, agonist; for EC50: read-out: 5-HT1B EC50
Method: Disclosed compounds were tested for agonist activity at several serotonin receptor subtypes (5-HT2A, […], 5-HT2C, and 5-HT1A) using Ca^2+ flux functional assays and the 5-HT1B receptor using a cAMP accumulation assay, with the results summarized in Table 4. […] Potent agonist activity was also observed at the other serotonin receptors tested, although the selectivity profile among the receptors varied across compounds. […]. However, at the same time, the N-propyl compounds were more efficacious agonists at 5-HT2B than the corresponding N-methyl compounds. The selectivity of disclosed compounds for 5-HT2A over 5-HT2C and 5-HT1A was less predictable and varied widely across compounds, ranging from ˜1:6 to ˜20:1 (2C/2A) in the case of 5-HT2C and from ˜1:4 to >100:1 (1A/2A) in the case of 5-HT1A. […] An azetidinyl amide substituent tended to increase potency at 5-HT1A relative to 5-HT2A.
Functional Assay at 5-HT1B. Agonist activity at 5-HT1B was determined using a cAMP accumulation protocol at WuXi AppTec (Hong Kong) Limited according to their standard protocols. Briefly, stably transfected cells were plated in an OptiPlate-384 well plate, incubated at RT for 60 mins, and cAMP standard solution (800 nM, 10 μL) was added to the blank well. Then, 10 μL detection reagent was added to each well, the plate incubated for 60 mins at RT, and the plate read using EnVision.

[3] = Metabolic stability in human liver microsomes (HLM); format: in vitro ADME; details: for t1/2: 1 μM, 0.50 mg protein per mL; for microsomal CLint at 1 μM / half-life at 1 μM: both sexes, human, pooled human liver microsomes, pH 7.4, 0.50 mg protein per mL
Excerpt: HLM Stability. Pooled HLM from adult male and female donors (Corning 452117) were used.

[4] = Metabolic stability in mouse liver microsomes (MLM); format: in vitro ADME; details: 0.50 mg protein per mL; for t1/2: MLM (CD-1), 1 μM; for microsomal CLint at 1 μM: mouse, pooled mouse liver microsomes, pH 7.4, MLM (CD-1)
Excerpt: MLM Stability Pooled MLM from CD-1 mice (BIOIVT M00501) were used.

[5] = Metabolic stability in rat liver microsomes (RLM); details: for t1/2: RLM, 0.50 mg protein per mL; for microsomal CLint at 1 μM: both, rat, pooled rat liver microsomes, pH 7.4

Sequence of 5-HT1B receptor (P28222 whole entry): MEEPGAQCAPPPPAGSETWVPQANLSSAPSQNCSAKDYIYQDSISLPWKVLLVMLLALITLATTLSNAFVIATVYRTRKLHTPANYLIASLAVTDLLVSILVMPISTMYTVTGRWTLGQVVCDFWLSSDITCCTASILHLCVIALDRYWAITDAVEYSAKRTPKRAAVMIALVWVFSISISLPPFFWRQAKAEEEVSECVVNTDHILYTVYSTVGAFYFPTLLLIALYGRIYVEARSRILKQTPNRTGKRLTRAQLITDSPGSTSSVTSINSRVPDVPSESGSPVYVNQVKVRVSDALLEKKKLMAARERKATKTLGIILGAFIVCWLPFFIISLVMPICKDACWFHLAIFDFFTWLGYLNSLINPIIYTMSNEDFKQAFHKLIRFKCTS
T1 sequence (P28223 whole entry): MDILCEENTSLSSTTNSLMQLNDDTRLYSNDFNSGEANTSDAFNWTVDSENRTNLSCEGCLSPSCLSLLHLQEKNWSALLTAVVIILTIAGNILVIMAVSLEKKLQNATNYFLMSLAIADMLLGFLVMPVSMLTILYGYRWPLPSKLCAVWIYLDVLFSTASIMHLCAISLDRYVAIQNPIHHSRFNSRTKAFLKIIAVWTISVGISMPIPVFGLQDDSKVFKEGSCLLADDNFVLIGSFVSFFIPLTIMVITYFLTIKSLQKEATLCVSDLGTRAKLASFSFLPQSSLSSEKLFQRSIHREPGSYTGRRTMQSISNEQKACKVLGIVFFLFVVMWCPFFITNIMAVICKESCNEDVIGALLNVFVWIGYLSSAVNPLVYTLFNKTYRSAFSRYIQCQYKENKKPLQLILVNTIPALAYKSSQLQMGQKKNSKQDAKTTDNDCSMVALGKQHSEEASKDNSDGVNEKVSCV
T3 sequence (P41595 whole entry): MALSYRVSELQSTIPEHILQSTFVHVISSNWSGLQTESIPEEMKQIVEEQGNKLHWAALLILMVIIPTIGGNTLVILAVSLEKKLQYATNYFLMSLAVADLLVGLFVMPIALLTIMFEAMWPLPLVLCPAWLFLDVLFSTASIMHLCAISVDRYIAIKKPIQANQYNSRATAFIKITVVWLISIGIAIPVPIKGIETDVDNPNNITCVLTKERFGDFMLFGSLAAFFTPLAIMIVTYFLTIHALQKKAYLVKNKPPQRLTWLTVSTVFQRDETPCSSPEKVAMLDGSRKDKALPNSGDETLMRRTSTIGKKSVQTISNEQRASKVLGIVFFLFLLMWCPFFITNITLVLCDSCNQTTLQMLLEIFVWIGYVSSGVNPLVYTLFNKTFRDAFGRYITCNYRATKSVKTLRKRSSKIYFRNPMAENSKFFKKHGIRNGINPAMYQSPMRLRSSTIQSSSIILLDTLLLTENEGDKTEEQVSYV

Compound	Ki (5-HT2A receptor [1]) [nM]	EC50 (5-HT2A receptor [2]) [nM]	EC50 (5-HT1A receptor) [µM]	EC50 (5-HT2B receptor) [µM]	EC50 (5-HT1B receptor) [nM]	t1/2 [3] [min]	microsomal CLint at 1 μM [3] [µL/min/mg]	t1/2 [4] [min]	microsomal CLint at 1 μM [4] [µL/min/mg]	t1/2 [5] [min]	microsomal CLint at 1 μM [5] [µL/min/mg]	5-HT1A % Act @ Max Dose (5-HT1A receptor) [%]	agonist activity at serotonin receptors (in words) (5-HT2A receptor [2]; Ca^2+ flux / cAMP functional assays, receptors tested)	5-HT2A % Act @ Max Dose (5-HT2A receptor [2]) [%]	5-HT2B % Act @ Max Dose (5-HT2B receptor) [%]	5-HT1B % Act @ Max Dose (5-HT1B receptor) [%]	half-life at 1 μM [3] [min]
CCN(CC)C(=O)[C@@H]1C=C2c3cccc4[nH]cc(c34)C[C@H]2N(Cc2ccccc2O)C1 [Compound 16, (6aR,9R)—N,N-diethyl-7-(2-hydroxybenzyl)-4,6,6a,7,8,9-hexahydroindolo[4,3-fg]quinoline-9-carboxamide]	2.18	547	> 10	> 10	682	4.9	286	1.3	1050	2.2	616	–	–	–	–	–	–
CCN(CC)C(=O)[C@@H]1C=C2c3cccc4[nH]cc(c34)C[C@H]2N(Cc2cccc(OC)c2)C1 [Compound 18, (6aR,9R)—N,N-diethyl-7-(3-methoxybenzyl)-4,6,6a,7,8,9-hexahydroindolo[4,3-fg]quinoline-9-carboxamide]	3.41	227	> 10	> 10	1780	13.6	102	2.6	524	5.3	263	–	–	–	–	–	–
CCN(CC)C(=O)[C@@H]1C=C2c3cccc4[nH]cc(c34)C[C@H]2N(Cc2ccc(OC)cc2)C1 [Compound 19, (6aR,9R)—N,N-diethyl-7-(4-methoxybenzyl)-4,6,6a,7,8,9-hexahydroindolo[4,3-fg]quinoline-9-carboxamide]	5.58	2960	> 10	> 10	5850	16.8	82.7	7.2	193	10.0	139	−0.65	–	–	–	–	–
CCN(CC)C(=O)[C@@H]1C=C2c3cccc4[nH]c(Br)c(c34)C[C@H]2N(CCC(F)(F)F)C1 [Compound 42, (6aR,9R)-5-bromo-N,N-diethyl-7-(3,3,3-trifluoropropyl)-4,6,6a,7,8,9-hexahydroindolo[4,3-fg]quinoline-9-carboxamide]	1.84	> 1000	> 10	> 10	> 10000	–	125	–	–	–	–	9.13	no agonist activity	8.29	2.58	33.13	11.1
CC[C@@H](C)NC(=O)[C@@H]1C=C2c3cccc4[nH]c(Br)c(c34)C[C@H]2N(C)C1 [Compound 43, (6aR,9R)-5-bromo-N—((R)-sec-butyl)-7-methyl-4,6,6a,7,8,9-hexahydroindolo[4,3-fg]quinoline-9-carboxamide]	1.13	118	> 10	> 10	311	–	56	–	–	–	–	6.30	–	39.32	1.00	83.76	24.8
CCC(CC)NC(=O)[C@@H]1C=C2c3cccc4[nH]c(Br)c(c34)C[C@H]2N(C)C1 [Compound 44, (6aR,9R)-5-bromo-N-(pentan-3-yl)-7-methyl-4,6,6a,7,8,9-hexahydroindolo[4,3-fg]quinoline-9-carboxamide]	0.76	129	> 10	> 10	1270	–	153	–	–	–	–	16.56	–	29.90	15.68	68.53	9
CCC[C@@H](C)NC(=O)[C@@H]1C=C2c3cccc4[nH]c(Br)c(c34)C[C@H]2N(C)C1 [Compound 45, (6aR,9R)-5-bromo-N—((R)-pentan-2-yl)-7-methyl-4,6,6a,7,8,9-hexahydroindolo[4,3-fg]quinoline-9-carboxamide]	0.38	133	> 10	> 10	245	–	176	–	–	–	–	12.53	–	22.28	−0.31	87.10	7.9
CCCN1C[C@H](C(=O)N[C@H](C)CC)C=C2c3cccc4[nH]c(Br)c(c34)C[C@H]21 [Compound 46, (6aR,9R)-5-bromo-N—((R)-sec-butyl)-7-propyl-4,6,6a,7,8,9-hexahydroindolo[4,3-fg]quinoline-9-carboxamide]	1.03	110	0.707	0.788	1180	–	427	–	–	–	–	69.48	–	69.48	79.00	78.76	3.2
CCCN1C[C@H](C(=O)N2[C@@H](C)C[C@@H]2C)C=C2c3cccc4[nH]c(Br)c(c34)C[C@H]21 [Compound 47, ((6aR,9R)-5-bromo-7-propyl-4,6,6a,7,8,9-hexahydroindolo[4,3-fg]quinolin-9-yl)((2S,4S)-2,4-dimethylazetidin-1-yl)methanone]	1.38	117	0.0936	1.44	4960	–	249	–	–	–	–	62.15	–	57.01	87.01	76.22	5.6
CN1C[C@H](C(=O)N2CCCC2)C=C2c3cccc4[nH]cc(c34)C[C@H]21 [Int22, ((6aR,9R)-7-methyl-4,6,6a,7,8,9-hexahydroindolo[4,3-fg]quinolin-9-yl)(pyrrolidin-1-yl)methanone]	14.9	21.1	0.00882	0.0552	7.38	–	< 9.6	–	–	–	–	103.7	–	89.65	21.35	94.25	> 145
